pIC50: −log10 of the molar value.
Tests used:
P2X purinoceptor 7 [1] = molecular target: T1, P2X purinoceptor 7 (Rattus norvegicus, UniProt Q64663); assay: (§1) On the day of the experiment, cell membrane preparations were made according to standard published methods. The total assay volume was 100 μl:10 μl compound (10×)+(b) 40 μl tracer (2.5×)+50 μl membrane (2×). The tracer used for the assay was tritiated A-804598. The compound can be prepared as described in the literature. […] The assay was terminated by filtration (GF/B filters pre-soaked with 0.3% PEI) and washed with washing buffer (Tris-HCl 50 mM). The IC50 generated in the binding assay was corrected for tracer concentration and affinity of the tracer to derive at the affinity (Ki) of the test compounds.
T1 sequence (Q64663 whole entry): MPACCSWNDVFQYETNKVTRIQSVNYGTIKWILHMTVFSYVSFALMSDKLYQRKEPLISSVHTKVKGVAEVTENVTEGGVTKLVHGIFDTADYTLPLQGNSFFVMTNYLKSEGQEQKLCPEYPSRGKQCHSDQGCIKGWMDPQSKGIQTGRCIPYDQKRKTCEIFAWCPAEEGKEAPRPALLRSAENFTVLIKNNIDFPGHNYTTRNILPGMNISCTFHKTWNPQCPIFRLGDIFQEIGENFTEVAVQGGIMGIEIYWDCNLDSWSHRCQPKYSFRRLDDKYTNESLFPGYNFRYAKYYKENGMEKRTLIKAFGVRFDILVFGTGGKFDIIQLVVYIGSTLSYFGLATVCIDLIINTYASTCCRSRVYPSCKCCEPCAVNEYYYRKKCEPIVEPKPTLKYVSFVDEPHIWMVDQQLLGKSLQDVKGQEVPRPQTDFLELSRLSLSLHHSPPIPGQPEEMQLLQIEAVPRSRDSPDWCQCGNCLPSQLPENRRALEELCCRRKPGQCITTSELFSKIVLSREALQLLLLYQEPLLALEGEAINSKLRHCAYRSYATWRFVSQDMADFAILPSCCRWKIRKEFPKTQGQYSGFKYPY

P2X purinoceptor 7 [2] = molecular target: T2, P2X purinoceptor 7 (Homo sapiens, UniProt Q99572); assay: as §1
T2 sequence (Q99572 whole entry): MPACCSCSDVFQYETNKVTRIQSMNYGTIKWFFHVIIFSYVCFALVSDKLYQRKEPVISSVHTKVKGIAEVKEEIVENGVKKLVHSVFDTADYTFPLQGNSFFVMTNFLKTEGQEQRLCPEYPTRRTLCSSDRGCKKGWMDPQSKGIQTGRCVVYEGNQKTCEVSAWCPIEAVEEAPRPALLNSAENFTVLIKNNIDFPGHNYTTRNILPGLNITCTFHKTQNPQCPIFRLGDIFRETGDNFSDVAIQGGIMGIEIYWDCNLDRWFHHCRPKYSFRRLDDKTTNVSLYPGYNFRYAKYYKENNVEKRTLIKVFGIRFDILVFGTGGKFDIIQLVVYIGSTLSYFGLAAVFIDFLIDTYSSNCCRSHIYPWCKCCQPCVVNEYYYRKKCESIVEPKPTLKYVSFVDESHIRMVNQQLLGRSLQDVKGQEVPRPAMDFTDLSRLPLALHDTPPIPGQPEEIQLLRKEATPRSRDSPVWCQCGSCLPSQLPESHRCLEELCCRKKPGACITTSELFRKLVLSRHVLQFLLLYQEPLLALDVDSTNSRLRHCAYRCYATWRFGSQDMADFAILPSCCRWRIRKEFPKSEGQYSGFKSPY

Compound: Cc1c(C(=O)N2Cc3nnn(C4=NN=CC4)c3CC2C)cccc1C(F)(F)F (configuration not stated)
- pIC50 (P2X purinoceptor 7 [1]): 7.99
- pIC50 (P2X purinoceptor 7 [2]): 7.78
